Results as given in patent US4841051A, “Phenylpiperazine derivatives” (Nippon Kayaku Kabushiki Kaisha, priority 1985, dated 1989).

Experiments:
[1] = molecular target: T1, isolated vas deferens of a rat (Rattus norvegicus, UniProt P43140); assay: Action on isolated vas deferens of a rat (antagonism against noradrenaline); design: species or system SD male rat; conditions: 3 minutes pretreatment, 32° C., read-out: pA2 (converted)
T1 construct: The vas deferens was isolated from SD male rats and cut into strips about 20 mm long; from tissue; host or cells: vas deferens of SD male rats
T1 sequence (P43140 1-466): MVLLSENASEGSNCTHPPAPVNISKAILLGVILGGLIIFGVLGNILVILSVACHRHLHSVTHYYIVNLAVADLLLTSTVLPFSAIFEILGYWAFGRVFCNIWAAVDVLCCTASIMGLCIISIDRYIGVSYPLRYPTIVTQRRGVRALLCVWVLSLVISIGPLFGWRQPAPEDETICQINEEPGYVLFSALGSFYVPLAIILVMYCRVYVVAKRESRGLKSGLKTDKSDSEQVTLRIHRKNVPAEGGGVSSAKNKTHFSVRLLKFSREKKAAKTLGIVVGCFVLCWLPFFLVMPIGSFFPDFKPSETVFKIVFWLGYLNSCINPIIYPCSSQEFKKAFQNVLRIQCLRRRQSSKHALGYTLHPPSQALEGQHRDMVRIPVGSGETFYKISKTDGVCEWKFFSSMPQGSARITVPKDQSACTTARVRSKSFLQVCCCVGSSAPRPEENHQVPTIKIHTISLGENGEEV
Description: The vas deferens was isolated from SD male rats and cut into strips about 20 mm long. The both ends of the strip were bounded with two threads respectively. The thread attached to one end of the strips was fixed in a 10-ml organ bath and the thread attached to other end was connected to an isotonic transducer. The bath was filled with Tyrode's solution of 32° C. comprising a solution of 8.0 g of NaCl, 0.2 g of KCl, 0.2 g of CaCl2, 0.1 g of MgCl2, 0.05 g of NaH2 PO4, 1.0 g of NaHCO3 and 1.0 g of glucose in 1 l of deionized water. A gas mixture comprising 95% of oxygen and 5% of carbon dioxide was bubbled into the bath. Resting tension of 0.5 g was loaded. Noradrenaline was treated accumulatively in the bath to obtain a consistent dose-response curve. After the pretreatment of the preparation with a sample compound for 3 minutes, another dose-response curve of noradrenaline was obtained to determine the activities of the compound. The strength of antagonism against noradrenaline was determined from these dose-response curves in terms of pA2 value.

[2] = tested on: SHR rat; assay: Hypotensive activity, SHR rat; assay type: in vivo; conditions: 3 μg/kg, injected into femoral vein, anesthetized SHR rat
Description: (§1) The experiment was carried out using an SHR or SD male rat under anesthesia. The blood pressure was measured by inserting a polyethylene tube (a product of Clay Adams Co., Ltd.: PE-50) into its carotid arteries and using a pressure transducer (a product of Century Technology Company: CP-01) and continuously recorded on a recorder (a product of Nippon Koden Co., Ltd.). Sample compounds were each injected by a polyethylene tube (a product of Clay Adams Co., Ltd.: PE-10) inserted into the femoral vein of the rat in an amount of 3 μg/kg for an SHR rat or 10 μg/kg for an SD rat to examine the maximum hypotensive effect on systolic pressure.

[3] = Acute toxicity, intraperitoneal; conditions: mouse, in vivo, ip, ICR male mice, up-and-down method or van der Welden method
Description: The acute toxicity due to intraperitoneal administration of a sample compound was examined by using ICR male mice (CRJ-ICR: weight of 29.5 to 52.3 g). Each sample compound was administered to from ten to thirty mice. The mice were observed until the symptom got well again. The LD50 values were determined by the up-and-down method or by van der Welden method.

[4] = tested on: α1 -receptor; assay: α1 -blocking activity (inhibition of blood pressure increase due to phenylephrine); assay type: in vivo; conditions: 10 μg/kg, femoral vein; phenylephrine 2 μg/kg i.v.; anesthetized SD male rat
Description: The blood pressure (a) of an SD male rat of 7 to 8 weeks of age was measured and 2 μg/kg of phenylephrine was administered to the rat by intravenous injection. Then the maximum response of blood pressure (b) was measured. 10 μg/kg of a sample compound was administered to the rats, followed by the intravenous injection of 2 μg/kg of phenylephrine. Then, the maximum response of blood pressure (c) was measured. The depression (d) of blood pressure increased due to phenylephrine was calculated by the following equation: [formula]
The animal was anesthetized by intraperitoneal administration of 40 mg/kg of nembutal and the anesthetic depth was kept by intravenous drip infusion of 15 mg/kg/hr of pentobarbital sodium. The blood pressure was measured by inserting a polyethylene tube (a product of Clay Adams: PE-50) and using a transducer (a product of Century Technology Company: CP-01) and continuously recorded on a pen oscillograph (a product of Nippon Koden Co., Ltd. WI-6416). Each sample compound was injected by a polyethylene tube (a product of Clay Adams Co., Ltd.: PE-10) inserted into the femoral vein.

[5] = tested on: SD rat; assay: Hypotensive activity, SD rat; assay type: in vivo, SD male rat; conditions: 10 μg/kg, injected into femoral vein, anesthetized SD rat
Description: as §1

| SMILES | Kb [1] [nM] | maximum hypotensive effect on systolic pressure, SHR rat [2] | LD50 [3] [mg/kg] | Percentage of inhibition of blood pressure increase [4] [%] | maximum hypotensive effect on systolic pressure, SD rat [5] [mmHg] |
| --- | --- | --- | --- | --- | --- |
| CCOc1ccccc1N1CCN(CCn2cnc3ccccc3c2=O)CC1 [Compound 1, 3-[2-[4-(2-Ethoxyphenyl)-1-piperazinyl]-ethyl]-4(3H)-quinazolone] | 0.501 | +++ (pressure drop of 21 to 30 mmHg) | 400 |  |  |
| CCOc1ccccc1N1CCN(CCn2c(C)nc3ccccc3c2=O)CC1 [Compound 3] | 3.16 | +++ (pressure drop of 21 to 30 mmHg) | 119 |  |  |
| CCOc1ccccc1N1CCN(CCCn2c(C)nc3ccccc3c2=O)CC1 [Compound 4] | 10 | ++ (pressure drop of 11 to 20 mmHg) | 152 |  |  |
| CCOc1ccccc1N1CCN(CCCCn2cnc3ccccc3c2=O)CC1 [Compound 5, 3-{4-[4-(2-Ethoxyphenyl)-1-piperazinyl]butyl}-4(3H)-quinazolone] | 0.398 | +++ (pressure drop of 21 to 30 mmHg) | 150 | 89.6 | 57.5 |
| CCOc1ccccc1N1CCN(CCCn2c(C)nc3nc(C)cc(C)c3c2=O)CC1 [Compound 6, 2,5,7-Trimethyl-3-[3-[4-(2-ethoxyphenyl)-1-piperazinyl]-propyl]pyrido[2,3-d]pyrimidin-4(3H)-one] | 2.51 | ++ (pressure drop of 11 to 20 mmHg) | 128 |  |  |
| CCOc1ccccc1N1CCN(CCCCn2c(C)nc3nc(C)cc(C)c3c2=O)CC1 [Compound 7] | 5.01 | ++ (pressure drop of 11 to 20 mmHg) | 137 |  |  |
| CCOc1ccccc1N1CCN(CCn2c(C)nc3nc(C)cc(C)c3c2=O)CC1 [Compound 8] | 6.31 | ++ (pressure drop of 11 to 20 mmHg) | 207 |  |  |
| CCOc1ccccc1N1CCN(CCCCn2c(=O)n(-c3ccccc3)c(=O)c3c(C)cc(C)nc32)CC1 [Compound 10, 3-Phenyl-5,7-dimethyl-1-[4-[4-(2-ethoxyphenyl)-1-piperazinyl]butyl]pyrido[2,3-d]pyrimidine-2,4(1H,3H)-dione] | 7.94 | ++ (pressure drop of 11 to 20 mmHg) | 328 |  |  |
